Measured values published in US20190247398A1, “FORMULATIONS OF A MACROCYCLIC TRK KINASE INHIBITOR” (Array BioPharma Inc., priority 2017, published 2019).
Like-named read-outs stand apart in the source and are kept apart here.

Tests used:
Format in all cases: physicochemical
[1] = Salt disproportionation studies; conditions: deionized water, 24 h, ambient temperature
Method: Salt disproportionation studies were carried out as follows: 20 mg of prepared salts were weighed into a vial and 0.5 mL of deionized water was added. The samples were then agitated for 24 h at ambient temperature. The pH of the samples was taken pre- and post-agitation. Any solids recovered were submitted for XRPD analysis to determine any changes to form.

[2] = Dynamic vapor sorption (DVS)
Method: Approximately, 10 mg of sample was placed into a mesh vapor sorption balance pan and loaded into a DVS-1 dynamic vapor sorption balance by Surface Measurement Systems. The sample was subjected to a ramping profile from 40-90% relative humidity (RH) at 10% increments, maintaining the sample at each step until a stable weight had been achieved (99.5% step completion). After completion of the sorption cycle, the sample was dried using the same procedure to 0% RH and then a second sorption cycle back to 40% RH. The weight change during the sorption/desorption cycles were plotted, allowing for the hygroscopic nature of the sample to be determined. XRPD analysis was then carried out on any solid retained.

Thermodynamic solubility = conditions: for solubility thermodynamic at 24 h: thermodynamic from solid, ambient temperature, read-out: Concentration (thermodynamic solubility)
Method: Thermodynamic solubility studies were carried out as follows: 10 mg of prepared salts were suspended in pH 1, 4.5, 6.8 and un-buffered water (300 μL). The pH of the slurries was measured and adjusted accordingly using either 0.2M HCl solution or 0.2M sodium hydroxide solution. The slurries were agitated for 24 hours at ambient temperature using an incubator shaker.

[3] = 1 week stability tests (40° C./75% RH, 80° C., ambient light; XRPD and UPLC)
[4] = Hydration screen (acetone/water mixtures of various water activities); conditions: ambient
Method: Hydration screen was carried out as follows: 10 mg of prepared salts were suspended in several acetone/water mixtures of various water activities (low: aw=0.281, medium: aw=0.776 and high: aw=0.919) and agitated at ambient temperatures for 24 hr. Any recovered solids were submitted for XRPD analysis to determine any changes to form.

[5] = Salt stability studies (40° C./75% RH for 1 week, XRPD)
Method: Recovered salts were placed in an oven at 40° C./75% RH for 1 week, and the resultant materials were analyzed by XRPD to determine any changes to form or crystallinity.

[6] = Gravimetric vapor sorption (GVS)
Method: Approximately 10-20 mg of sample was placed into a mesh vapor sorption balance pan and loaded into an IGASorp Moisture Sorption Analyzer balance by Hiden Analytical. […] After completion of the sorption cycle, the sample was dried using the same procedure to 0% RH, and finally taken back to the starting point of 40% RH. The weight change during the sorption/desorption cycles were plotted, allowing for the hygroscopic nature of the sample to be determined.

[7] = pH 6.8 potassium phosphate buffer, aqueous buffer, pH 6.8 buffer
[8] = simulated gastric fluid, pH 1 buffer
[9] = high water activity aw=0.919, 24 hr
[10] = low water activity aw=0.281, 24 hr
[11] = medium water activity aw=0.776, 24 hr

| Structure (SMILES) | material recovered after salt disproportionation study (XRPD) [1] | solubility thermodynamic at 24 h (Thermodynamic solubility; aqueous buffer, pH 4.5 buffer) | thermodynamic solubility (in words) (Thermodynamic solubility; pH 1) | solids recovered after thermodynamic solubility study (XRPD) (Thermodynamic solubility; pH 4.5) | thermodynamic solubility (in words) (Thermodynamic solubility; pH 4.5) | solids recovered after thermodynamic solubility study (XRPD) (Thermodynamic solubility; pH 6.8) | thermodynamic solubility (in words) (Thermodynamic solubility; pH 6.8) | solubility thermodynamic at 24 h (Thermodynamic solubility; [7]) | solubility thermodynamic at 24 h (Thermodynamic solubility; [8]) | solubility thermodynamic at 24 h (Thermodynamic solubility; un-buffered water) | solids recovered after thermodynamic solubility study (XRPD) (Thermodynamic solubility; un-buffered water) | thermodynamic solubility (in words) (Thermodynamic solubility; un-buffered water) | change in purity after 1 week stability test (UPLC) ([3]; 40° C./75% RH) | change in purity after 1 week stability test (UPLC) ([3]; 80° C.) | change in purity after 1 week stability test (UPLC) ([3]; ambient light) | solid recovered from hydration screen (XRPD) [4, 9] | solid recovered from hydration screen (XRPD) [4, 10] | solid recovered from hydration screen (XRPD) [4, 11] | changes to form or crystallinity after stability conditions (XRPD) ([5]; salt recovered from acetone) | also measured |
| --- | --- | --- | --- | --- | --- | --- | --- | --- | --- | --- | --- | --- | --- | --- | --- | --- | --- | --- | --- | --- |
| C[C@@H]1CCc2ncc(F)cc2[C@H]2CCCN2c2ccn3ncc(c3n2)C(=O)N1.O=C(O)CC(O)(CC(=O)O)C(=O)O [Compound 1 citrate] | poorly crystalline citrate salt | 300 µg/mL | high solubility | Compound 1 citrate | lower solubility | poorly crystalline free base | lower solubility | 900 µg/mL | 18600 µg/mL | 21000 µg/mL | Compound 1 citrate | highly soluble | no change to purity | no change to purity | no change to purity | poorly crystalline citrate salt | poorly crystalline citrate salt | unknown form, referred to here as Form B | a decrease to crystallinity but no change to form | hygroscopicity by DVS (in words) ([2]; DVS humidity conditions): low hygroscopicity; change in crystalline form after exposure to DVS conditions (post-DVS XRPD) ([2]; after DVS cycle): no changes in crystalline form; mass uptake (DVS) ([2]; at 90% RH): around 1.8%; solids recovered after thermodynamic solubility study (XRPD) (Thermodynamic solubility; pH 1): poorly crystalline solids; change to form after 1 week stability test (XRPD) ([3]; 40° C./75% RH): no change to form; change to form after 1 week stability test (XRPD) ([3]; 80° C.): no change to form; change to form after 1 week stability test (XRPD) ([3]; ambient light): no change to form; changes to form or crystallinity after stability conditions (XRPD) ([5]; salt recovered from TBME): a decrease to crystallinity but no change to form |
| CS(=O)(=O)O.C[C@@H]1CCc2ncc(F)cc2[C@H]2CCCN2c2ccn3ncc(c3n2)C(=O)N1 [Compound 1 mesylate] | no change to form by XRPD analysis but crystallinity reduced | 9300 µg/mL | moderately soluble | mesylate salt | moderately soluble | free base | low solubility | 1500 µg/mL | 14300 µg/mL | 9600 µg/mL | free base | moderately soluble | no change to purity | no change to purity | no change to purity | free base | a mixture of free base and salt | mesylate salt | no changes to crystallinity or form | RH at which the material deliquesced (GVS) ([6]; GVS humidity conditions): 30 % RH; hygroscopicity by GVS (in words) ([6]; GVS humidity conditions): high hygroscopicity; change in crystalline form after exposure to GVS conditions (post-GVS XRPD) ([6]; after GVS cycle): desolvate and become the mesylate form seen in the salt screen; mass uptake (GVS) ([6]; at 90% RH): about 32%; changes to form or crystallinity after stability conditions (XRPD) ([5]; salt recovered from isopropanol): a slight increase in crystallinity but no changes to form; changes to form or crystallinity after stability conditions (XRPD) ([5]; salt recovered from methanol): a decrease in crystallinity but no changes to form |
